Measured values as given in patent publication US8518956B2, “1-(1-(2-ethoxyethyl)-3-ethyl-7-(4-methylpyridin-2-ylamino)-1H-pyrazolo[4,3-d]pyrimidin-5-yl) piperidine-4-carboxylic acid and salts thereof” (priority 2005, dated 2013).

Key:
[1] = system: spontaneously hypertensive rats (SHR); experiment: Method 12: SHR Rat Combination Therapy, blood pressure by telemetry; format: in vivo; settings: 1 mg/kg once daily oral
[2] = Method 11: Single Dose Pharmacokinetics and Oral Bioavailability in Male Sprague-Dawley Rat; format: in vivo; settings: mean
Method: Repeat testing is recommended in order to establish a valid assay test result. P. Pharmacokinetic/Pharmacodynamic Study Method 11: Single Dose Pharmacokinetics and Oral Bioavailability in Male Sprague-Dawley Rat Following Intravenous and Oral Administration
An in vivo model can be used to evaluate the single dose pharmacokinetic properties and absolute oral bioavailability of a test compound. As described more specifically below, a test compound is administered to Sprague-Dawley (SD) rats either intravenously or orally in a crossover study design and the resulting pharmacokinetic properties and oral bioavailability are measured.
Male rats are administered a 2.0 mg/kg dose orally (n=2) by gavage as a suspension (0.5% methylcellulose/0.1% Tween 80 in distilled water). After a 72 hour wash-out periond, the same rats were administered 2.0 mg/kg dose bolus intravenously (n=2) as a solution (70% PEG 400/20% 0.05 M Citrate Buffer pH 3/10% Ethanol). Serial blood samples (for plasma) are collected from each rat over a 24 hour post dose for each route. […] Pharmacokinetic parameters of a test compound are determined from the plasma concentration-time data using non-compartmental methods. • LC/MS/MS: 1) Column: Hyperso; AQUASIL C-18 2.1×20 mm, 3.0 μm; 2) Mobile phase: Aqueous Water with 0.1% Formic Acid, Orgainic: Acetonitrile; Ionization: +ESI (API 4000). MRM: m/z 494.4→m/z 394.0 (Example 261 in WO2004096810), m/z 509.44→m/z 409.80 (Example 263 in WO2004096810), m/z 495.33→m/z 395.20 (Example 262 in WO2004096810). The detection limits are 0.12 ng/mL (Example 261 in WO2004096810), 1.3 ng/mL (Example 263 in WO2004096810) and 0.11 ng/mL (Example 262 in WO2004096810).
Watson (Version 6.4.0.04) is used to calculate mean test compound concentrations, corresponding standard deviations (SD), and percent coefficient of variation (% CV), and to estimate pharmacokinetic parameters (derived by noncompartmental methods) and associated statistics (mean, SD & CV %) if applicable. (Since n=2, no SD or CV calculated ?). Concentrations below the limit of quantitation (BLQ) are reported as zero (0) and are used in the evaluation of mean concentrations and the estimation of AUC. The peak plasma concentration (Cmax) and the time to reach peak concentration (tmax) are recorded directly from individual plasma concentration-time profiles. The terminal log-linear phase of the plasma concentration-time curve is identified by linear regression of data points. The terminal half-life (t1/2) is calculated as ln(2) divided by absolute value of the slope of the terminal log-linear phase. The area under the plasma concentration-time curve from time zero to time of the last quantifiable concentration (t) [AUC(0-t)] is determined using the linear trapezoidal method. The area under the plasma concentration-time curve from time zero to infinity [AUC(0-∞)] is determined as AUC(0-t) plus the extrapolated area. The extrapolated area is determined by dividing the last observed plasma concentration by the slope of the terminal log-linear phase. Systemic plasma clearance (CL) is calculated as dose/AUC(0-∞) while the volume of distribution at steady state (Vdss) is calculated as CL×MRT, where MRT (mean residence time) is defined as AUMC(0-∞)/AUC(0-∞). The absolute PO bioavailability (F) is calculated as a ratio of the dose-normalized AUC(0-∞) of individual animal after PO administration to the dose-normalized AUC(0-∞) of individual animal after IV administration given the crossover study design.

urinary cGMP = experiment: Method 12: SHR Rat Combination Therapy, urinary cGMP mechanistic biomarker; format: in vivo; settings: 0-24 hour urine collection on day 9
[3] = system: Chinese hamster ovary (CHO) cells; experiment: Method 7: Micronucleus Assay; format: cell-based; settings: in vitro, with and without S9
Method: Method 7: Micronucleus Assay
An in vitro micronucleus assay can be used to determine the mutagenic potential of a test compound. This assay detects chromosome abnormalities resulting from exposure to a test compound by measuring the formation of small membrane-bound DNA fragments such as micronuclei in the cytoplasm of interphase cells.
The assay is conducted using Chinese hamster ovary (CHO) cells under different test conditions in the absence and presence of metabolic activation. Concordance in outcomes between this screening assay and in vitro cytogenetics is around 85%. Direct (−S9) testing is conducted using 24 hour or 3 hour continuous treatments, whereas testing with metabolic activation (+S9) involves a 3 hour treatment. Clastogenicity is indicated by an increase in numbers of micronucleated cells in the first interphase after exposure (in cytokinesis-blocked binucleated cells). The results are compared to the level of cytotoxicity (measured by the proportion of binucleated cells) a test compound produces. […] A test compound displaying a negative response has not fulfilled specific evaluation criteria for the assay which may include one or both of the following: 1) a reproducible concentration dependent increase in the specific assay endpoint when compared to a negative (vehicle) control and/or 2) one or more test concentrations achieving a minimum fold increase in the specific endpoint over controls. • Positive—A positive result identifies a genotoxic hazard defined by the assays specific endpoint (ex. positive in vitro micronucleus). A test compound displaying a positive response has fulfilled specific evaluation criteria for the assay which may include one or both of the following: 1) a reproducible concentration dependent increase in the specific assay endpoint when compared to a negative (vehicle) control and/or 2) one or more test concentrations achieving a minimum fold increase in the specific endpoint over controls. • Equivocal—An equivocal result is reserved for situations where the test compound has been evaluated in a valid assay test or tests (i.e. assay acceptability criteria satisfactory), but fails to display a negative or positive result as defined by established evaluation criteria. This may convey the presence of a weak positive response that requires additional repeat testing or eventual confirmatory testing case-by-case. • Inconclusive—An inconclusive result is reserved for situations where the test compound has been evaluated in an invalid assay test (i.e. assay acceptability criteria unsatisfactory for technical reasons, ex. negative or positive controls fail to respond appropriately). Repeat testing is recommended in order to establish a valid assay test result.

CCOCCn1nc(CC)c2nc(N3CCC(C(=O)O)CC3)nc(Nc3cc(C)ccn3)c21 [Carboxypiperidine Compound, 1-(1-(2-ethoxyethyl)-3-ethyl-7-(4-methylpyridin-2-ylamino)-1H-pyrazolo[4,3-d]pyrimidin-5-yl)piperidine-4-carboxylic acid]
reduction of blood pressure from pre-dose baseline in comparison to vehicle treated group ([1]; day 1): 11±1 mmHg | reduction of blood pressure below pre-dose baseline ([1]; day 7): 9±1 mmHg | AUC(0-inf) ([2]; plasma, iv, 2 mg/kg): 17500 ng·h/mL | Vd ([2]; plasma, iv, 2 mg/kg, read-out: Vdss): 0.715 L/kg | AUC(0-inf) ([2]; plasma, po, 2 mg/kg): 9070 ± 2300 ng·h/mL | Cmax ([2]; plasma, po, 2 mg/kg): 1360 ± 216 ng/mL | Tmax ([2]; plasma, po, 2 mg/kg): 30 ± 12 min | F ([2]; po 2 mg/kg vs iv 2 mg/kg): 51.8 ± 13.1% | urinary cGMP in comparison to vehicle treated group (urinary cGMP): elevated | METHOD 7: MI[…] [3]: equivocal
